Test results taken from publication PMC5218480 (PLoS ONE, 2017).

System: MV-4-11 cells
Test: Gene expression microarray analysis (Affymetrix PrimeView) and GSEA
Type: cell-based, human
Set-up: RFU PODN (11730768_x_at) / Fold change /veh PODN (11730768_x_at) / RFU LINC00158 (11744669_a_at) / Fold change /veh LINC00158 (11744669_a_at) / RFU DUSP10 (11751237_a_at) / Fold change /veh DUSP10 (11751237_a_at) / RFU ID3 (11757404_x_at) / Fold change /veh ID3 (11757404_x_at) / RFU PLEKHG5 (11737974_s_at) / Fold change /veh PLEKHG5 (11737974_s_at) / RFU LRRC4B (11730491_at) / Fold change /veh LRRC4B (11730491_at) / RFU GIMAP4 (11747438_a_at) / Fold change /veh GIMAP4 (11747438_a_at) / RFU KRT8 (11758183_x_at) / Fold change /veh KRT8 (11758183_x_at) / RFU CNN1 (11734310_a_at) / Fold change /veh CNN1 (11734310_a_at) / RFU VPS37D (11726825_at) / Fold change /veh VPS37D (11726825_at) / RFU C10orf10 (11716522_x_at) / Fold change /veh C10orf10 (11716522_x_at) / RFU KIR2DL2 /// KIR2DL4 /// KIR2DL5A /// KIR2DL5B /// KIR2DS1 /// KIR2DS2 /// KIR2DS3 /// KIR2DS4 /// KIR3DL3 /// KIR3DL3 /// KIR3DS1 (11738374_at) / Fold change /veh KIR2DL2 /// KIR2DL4 /// KIR2DL5A /// KIR2DL5B /// KIR2DS1 /// KIR2DS2 /// KIR2DS3 /// KIR2DS4 /// KIR3DL3 /// KIR3DL3 /// KIR3DS1 (11738374_at) / RFU C1QL1 (11718748_at) / Fold change /veh C1QL1 (11718748_at) / RFU TMPRSS4 (11747572_a_at) / Fold change /veh TMPRSS4 (11747572_a_at) / RFU HAMP (11756126_x_at) / Fold change /veh HAMP (11756126_x_at) / RFU RNFT2 (11725882_a_at) / Fold change /veh RNFT2 (11725882_a_at) / RFU NR4A2 (11747474_a_at) / Fold change /veh NR4A2 (11747474_a_at) / RFU ABCC12 (11746883_a_at) / Fold change /veh ABCC12 (11746883_a_at) / RFU TMEM136 (11760407_x_at) / Fold change /veh TMEM136 (11760407_x_at) / RFU CLDN22 /// WWC2 (11732394_at) / Fold change /veh CLDN22 /// WWC2 (11732394_at) / RFU HLA-DPB1 (11760878_x_at) / Fold change /veh HLA-DPB1 (11760878_x_at) / RFU SPINT1 (11716480_a_at) / Fold change /veh SPINT1 (11716480_a_at) / RFU GAP43 (11754022_s_at) / Fold change /veh GAP43 (11754022_s_at) / RFU A4GNT (11735810_at) / Fold change /veh A4GNT (11735810_at) / RFU PRB3 (11715151_x_at) / Fold change /veh PRB3 (11715151_x_at) / RFU TUBB4B (11761932_at) / Fold change /veh TUBB4B (11761932_at) / RFU CAPN14 (11732068_a_at) / Fold change /veh CAPN14 (11732068_a_at) / RFU TMCC2 (11721928_a_at) / Fold change /veh TMCC2 (11721928_a_at) / RFU IRGQ (11745062_a_at) / Fold change /veh IRGQ (11745062_a_at) / RFU FAM174B (11720279_a_at) / Fold change /veh FAM174B (11720279_a_at) / RFU TMPRSS4 (11748680_a_at) / Fold change /veh TMPRSS4 (11748680_a_at) / RFU FAM212B (11763350_a_at) / Fold change /veh FAM212B (11763350_a_at) / RFU PLEKHG5 (11743358_a_at) / Fold change /veh PLEKHG5 (11743358_a_at) / RFU ZSCAN30 (11745921_a_at) / Fold change /veh ZSCAN30 (11745921_a_at) / RFU CMKLR1 (11741424_a_at) / Fold change /veh CMKLR1 (11741424_a_at) / RFU LOC101060620 /// MAPK8IP1 (11723275_at) / Fold change /veh LOC101060620 /// MAPK8IP1 (11723275_at) / RFU SPTSSB (11747773_x_at) / Fold change /veh SPTSSB (11747773_x_at) / RFU PRSS12 (11739890_at) / Fold change /veh PRSS12 (11739890_at) / RFU BIN1 (11741810_x_at) / Fold change /veh BIN1 (11741810_x_at) / RFU WNT11 (11732464_a_at) / Fold change /veh WNT11 (11732464_a_at) / RFU C10orf10 (11716521_a_at) / Fold change /veh C10orf10 (11716521_a_at) / RFU C5orf56 (11738089_at) / Fold change /veh C5orf56 (11738089_at) / RFU CYB561 (11721691_x_at) / Fold change /veh CYB561 (11721691_x_at) / RFU ANKRD19P (11752326_a_at) / Fold change /veh ANKRD19P (11752326_a_at) / RFU OR2T12 /// OR2T33 /// OR2T8 (11738714_s_at) / Fold change /veh OR2T12 /// OR2T33 /// OR2T8 (11738714_s_at) / RFU VCAN (11748164_a_at) / Fold change /veh VCAN (11748164_a_at) / RFU JSRP1 (11732532_at) / Fold change /veh JSRP1 (11732532_at) / RFU KRTAP10-11 (11738290_x_at) / Fold change /veh KRTAP10-11 (11738290_x_at) / RFU MYO3A (11730013_a_at) / Fold change /veh MYO3A (11730013_a_at) / RFU EBF3 (11725865_a_at) / Fold change /veh EBF3 (11725865_a_at) / RFU CAMK2N1 (11719241_x_at) / Fold change /veh CAMK2N1 (11719241_x_at) / RFU C5orf56 (11738088_a_at) / Fold change /veh C5orf56 (11738088_a_at) / RFU OLFML3 (11715873_a_at) / Fold change /veh OLFML3 (11715873_a_at) / RFU LOC100653217 /// NTM (11731650_a_at) / Fold change /veh LOC100653217 /// NTM (11731650_a_at) / RFU MAPK11 (11762145_a_at) / Fold change /veh MAPK11 (11762145_a_at) / RFU FIZ1 (11724087_x_at) / Fold change /veh FIZ1 (11724087_x_at) / RFU OASL (11726364_x_at) / Fold change /veh OASL (11726364_x_at) / RFU SOX15 (11748057_x_at) / Fold change /veh SOX15 (11748057_x_at) / RFU CD79A (11719716_a_at) / Fold change /veh CD79A (11719716_a_at) / RFU HIST1H1D (11736915_at) / Fold change /veh HIST1H1D (11736915_at) / RFU CASKIN2 (11723855_a_at) / Fold change /veh CASKIN2 (11723855_a_at) / RFU LOC730098 (11760151_x_at) / Fold change /veh LOC730098 (11760151_x_at) / RFU OR4N2 (11742367_at) / Fold change /veh OR4N2 (11742367_at) / RFU PRRT2 (11749266_a_at) / Fold change /veh PRRT2 (11749266_a_at) / RFU SNX32 (11753110_a_at) / Fold change /veh SNX32 (11753110_a_at) / RFU CDHR5 (11726645_a_at) / Fold change /veh CDHR5 (11726645_a_at) / RFU RCAN1 (11760418_a_at) / Fold change /veh RCAN1 (11760418_a_at) / RFU FAM167A (11723789_a_at) / Fold change /veh FAM167A (11723789_a_at) / RFU FAM26E (11764081_at) / Fold change /veh FAM26E (11764081_at) / RFU ISYNA1 (11749810_s_at) / Fold change /veh ISYNA1 (11749810_s_at) / RFU ACY1 (11761880_at) / Fold change /veh ACY1 (11761880_at) / RFU 11764098_at / Fold change /veh 11764098_at / RFU SAMD14 (11745864_x_at) / Fold change /veh SAMD14 (11745864_x_at) / RFU NPB (11741838_a_at) / Fold change /veh NPB (11741838_a_at) / RFU TMPRSS6 (11731388_a_at) / Fold change /veh TMPRSS6 (11731388_a_at) / RFU KRTAP10-2 (11738614_at) / Fold change /veh KRTAP10-2 (11738614_at) / RFU ARHGAP8 /// PRR5-ARHGAP8 (11727945_x_at) / Fold change /veh ARHGAP8 /// PRR5-ARHGAP8 (11727945_x_at) / RFU KRTAP5-7 /// NADSYN1 (11734609_at) / Fold change /veh KRTAP5-7 /// NADSYN1 (11734609_at) / RFU RASL12 (11751679_a_at) / Fold change /veh RASL12 (11751679_a_at) / RFU CDKN2B (11736163_a_at) / Fold change /veh CDKN2B (11736163_a_at) / RFU PRF1 (11729649_at) / Fold change /veh PRF1 (11729649_at) / RFU, ZNF638 /// ZNF638-IT1 / Fold change vs veh, ZNF638 /// ZNF638-IT1 / RFU, PANK3 / Fold change vs veh, PANK3 / RFU, SH3YL1 / Fold change vs veh, SH3YL1 / RFU, ZEB2 / Fold change vs veh, ZEB2 / RFU, NRIP1 / Fold change vs veh, NRIP1 / RFU, PTTG1IP / Fold change vs veh, PTTG1IP / RFU, CAPN2 / Fold change vs veh, CAPN2 / RFU, MED14 / Fold change vs veh, MED14 / RFU, SNORA58 / Fold change vs veh, SNORA58 / RFU, C1orf63 / Fold change vs veh, C1orf63 / RFU, LRRFIP1 / Fold change vs veh, LRRFIP1 / RFU, NDUFAF7 / Fold change vs veh, NDUFAF7 / RFU, SLC12A2 / Fold change vs veh, SLC12A2 / RFU, IBTK / Fold change vs veh, IBTK / RFU, ESF1 / Fold change vs veh, ESF1 / Fold change vs veh, TMEM50B / RFU, TAOK1 / Fold change vs veh, TAOK1 / RFU, ACBD3 / Fold change vs veh, ACBD3 / RFU, TMA16 / Fold change vs veh, TMA16 / RFU, RWDD3 / Fold change vs veh, RWDD3 / RFU, BCAT1 / Fold change vs veh, BCAT1 / RFU, EDEM3 / Fold change vs veh, EDEM3 / RFU, TMEM33 / Fold change vs veh, TMEM33 / RFU, WDR75 / Fold change vs veh, WDR75 / RFU, AHCTF1 / Fold change vs veh, AHCTF1 / RFU, TFRC / Fold change vs veh, TFRC / RFU, ZDHHC17 / Fold change vs veh, ZDHHC17 / RFU, NOM1 / Fold change vs veh, NOM1 / RFU, ARL8B / Fold change vs veh, ARL8B / RFU, ZBTB11 / Fold change vs veh, ZBTB11 / RFU, TAMM41 / Fold change vs veh, TAMM41 / RFU, KIAA1704 /// LOC100996395 / Fold change vs veh, KIAA1704 /// LOC100996395 / RFU, ING1 / Fold change vs veh, ING1 / RFU, TRMT61B / Fold change vs veh, TRMT61B / RFU, FUBP3 / Fold change vs veh, FUBP3 / RFU, TP53 / Fold change vs veh, TP53 / RFU, TNKS2 / Fold change vs veh, TNKS2 / RFU, ZFP14 / Fold change vs veh, ZFP14 / RFU, ACTR2 / Fold change vs veh, ACTR2 / RFU, PPP3R1 / Fold change vs veh, PPP3R1 / RFU, PIK3R1 / Fold change vs veh, PIK3R1 / RFU, HNRNPA1 / Fold change vs veh, HNRNPA1 / RFU, RNF170 / Fold change vs veh, RNF170 / RFU, ZNF28 / Fold change vs veh, ZNF28 / RFU, RNGTT / Fold change vs veh, RNGTT / RFU, OGT / Fold change vs veh, OGT / RFU, BRD1 / Fold change vs veh, BRD1 / RFU, MARS / Fold change vs veh, MARS / RFU, ZNF655 / Fold change vs veh, ZNF655 / RFU, FAHD1 / Fold change vs veh, FAHD1 / RFU, BDP1 / Fold change vs veh, BDP1 / RFU, LRRCC1 / Fold change vs veh, LRRCC1 / RFU, ARID1A / Fold change vs veh, ARID1A / RFU, ZNF146 / Fold change vs veh, ZNF146 / RFU, ZNF330 / Fold change vs veh, ZNF330 / RFU, GPN3 / Fold change vs veh, GPN3 / RFU, C9orf123 / Fold change vs veh, C9orf123 / RFU, N4BP2L2 / Fold change vs veh, N4BP2L2 / RFU, ARFIP1 / Fold change vs veh, ARFIP1 / RFU, FAM179B / Fold change vs veh, FAM179B / RFU, BCL10 / Fold change vs veh, BCL10 / RFU, UHRF1BP1L / Fold change vs veh, UHRF1BP1L / RFU, BET1 / Fold change vs veh, BET1 / RFU, CNOT2 / Fold change vs veh, CNOT2 / RFU, ZNF268 / Fold change vs veh, ZNF268 / Fold change vs veh, ZNF507 / RFU, DGCR2 / Fold change vs veh, DGCR2 / RFU, WDSUB1 / Fold change vs veh, WDSUB1 / Fold change vs veh, HSP90B1 /// MIR3652 / RFU, ADSS / Fold change vs veh, ADSS / RFU, GK / Fold change vs veh, GK / RFU, ZNF148 / Fold change vs veh, ZNF148 / RFU, TAF9 / Fold change vs veh, TAF9 / RFU, SLC1A5 / Fold change vs veh, SLC1A5 / RFU, SLMO2 / Fold change vs veh, SLMO2 / RFU, ABCC4 / Fold change vs veh, ABCC4 / RFU, LOC101060439 /// RAP1B / Fold change vs veh, LOC101060439 /// RAP1B / RFU, RFX7 / Fold change vs veh, RFX7 / RFU, GTPBP10 / Fold change vs veh, GTPBP10 / RFU, CNEP1R1 / Fold change vs veh, CNEP1R1 / RFU, BIVM-ERCC5 /// ERCC5 / Fold change vs veh, BIVM-ERCC5 /// ERCC5 / RFU, ILF3 / Fold change vs veh, ILF3 / RFU 11762660_at / Fold change /veh 11762660_at / RFU VCAN (11757783_s_at) / Fold change /veh VCAN (11757783_s_at) / RFU DDX43 (11728927_at) / Fold change /veh DDX43 (11728927_at) / RFU KRT8 (11758188_x_at) / Fold change /veh KRT8 (11758188_x_at) / RFU NKD1 (11759106_at) / Fold change /veh NKD1 (11759106_at) / RFU SRD5A1 (11742802_a_at) / Fold change /veh SRD5A1 (11742802_a_at) / RFU TPSAB1 /// TPSB2 (11721975_s_at) / Fold change /veh TPSAB1 /// TPSB2 (11721975_s_at) / RFU GSTM3 (11746129_a_at) / Fold change /veh GSTM3 (11746129_a_at) / RFU IL23R (11737362_x_at) / Fold change /veh IL23R (11737362_x_at) / RFU TMEM51 (11727254_a_at) / Fold change /veh TMEM51 (11727254_a_at) / RFU PIWIL2 (11732686_x_at) / Fold change /veh PIWIL2 (11732686_x_at) / RFU ORM1 (11744905_x_at) / Fold change /veh ORM1 (11744905_x_at) / RFU CCDC152 (11743942_at) / Fold change /veh CCDC152 (11743942_at) / RFU ECM1 (11717891_a_at) / Fold change /veh ECM1 (11717891_a_at) / RFU IL23R (11748794_a_at) / Fold change /veh IL23R (11748794_a_at) / RFU TNFAIP8L3 (11732012_x_at) / Fold change /veh TNFAIP8L3 (11732012_x_at) / RFU MBOAT4 (11741988_at) / Fold change /veh MBOAT4 (11741988_at) / RFU 11764193_at / Fold change /veh 11764193_at / RFU TMEM53 (11763286_at) / Fold change /veh TMEM53 (11763286_at) / RFU MAGEB2 (11727129_at) / Fold change /veh MAGEB2 (11727129_at) / RFU TMEM200A (11744735_a_at) / Fold change /veh TMEM200A (11744735_a_at) / RFU CCDC152 (11751479_a_at) / Fold change /veh CCDC152 (11751479_a_at) / RFU FAM211A (11726209_a_at) / Fold change /veh FAM211A (11726209_a_at) / RFU RGS16 (11746705_a_at) / Fold change /veh RGS16 (11746705_a_at) / RFU VCAN (11755009_s_at) / Fold change /veh VCAN (11755009_s_at) / RFU RHOB (11743442_s_at) / Fold change /veh RHOB (11743442_s_at) / RFU RGS16 (11720943_a_at) / Fold change /veh RGS16 (11720943_a_at) / RFU RGS16 (11720944_at) / Fold change /veh RGS16 (11720944_at) / RFU, VPS4B / Fold change vs veh, VPS4B / RFU, CREB1 / Fold change vs veh, CREB1 / RFU, DNAJC13 / Fold change vs veh, DNAJC13 / RFU, GNAQ / Fold change vs veh, GNAQ / RFU, CDK5R1 / Fold change vs veh, CDK5R1 / RFU, ZRANB3 / Fold change vs veh, ZRANB3 / RFU, CUL4A / Fold change vs veh, CUL4A / RFU, CCNY / Fold change vs veh, CCNY / RFU, UFL1 / Fold change vs veh, UFL1 / RFU, COG3 / Fold change vs veh, COG3 / RFU, DIAPH2 / Fold change vs veh, DIAPH2 / RFU, SKA2 / Fold change vs veh, SKA2 / RFU, AFF3 / Fold change vs veh, AFF3 / RFU, LMF1 / Fold change vs veh, LMF1 / RFU, IPO11 / Fold change vs veh, IPO11 / RFU, DFFB / Fold change vs veh, DFFB / RFU, FOXP1 / Fold change vs veh, FOXP1 / RFU, CARD8 / Fold change vs veh, CARD8 / RFU, STRN3 / Fold change vs veh, STRN3 / RFU, ADK / Fold change vs veh, ADK / RFU, RASSF2 / Fold change vs veh, RASSF2 / RFU, WIPF1 / Fold change vs veh, WIPF1 / RFU, LARP1B / Fold change vs veh, LARP1B / RFU, RASA1 / Fold change vs veh, RASA1 / RFU, RB1 / Fold change vs veh, RB1 / RFU, PPFIA1 / Fold change vs veh, PPFIA1 / RFU, MAT2A / Fold change vs veh, MAT2A / RFU, CCT5 / Fold change vs veh, CCT5 / RFU, WDR92 / Fold change vs veh, WDR92 / RFU, CUX1 / Fold change vs veh, CUX1 / RFU, TTC7A / Fold change vs veh, TTC7A / RFU, TMEM135 / Fold change vs veh, TMEM135 / RFU, DEPTOR / Fold change vs veh, DEPTOR / RFU, CPM / Fold change vs veh, CPM / RFU, DNAJB6 / Fold change vs veh, DNAJB6 / RFU, CACNA2D3 / Fold change vs veh, CACNA2D3 / RFU, DTX4 / Fold change vs veh, DTX4 / RFU, TFCP2 / Fold change vs veh, TFCP2 / RFU, GMCL1 /// GMCL1P1 / Fold change vs veh, GMCL1 /// GMCL1P1 / RFU, AEBP2 / Fold change vs veh, AEBP2 / RFU, SNHG1 /// SNORD22 /// SNORD25 /// SNORD26 /// SNORD27 /// SNORD28 /// SNORD29 /// SNORD31 / Fold change vs veh, SNHG1 /// SNORD22 /// SNORD25 /// SNORD26 /// SNORD27 /// SNORD28 /// SNORD29 /// SNORD31 / Fold change (Aza/veh), C12orf56 (ProbeSet 11735607_a_at) / Fold change (ACY-1035/veh), C12orf56 (ProbeSet 11735607_a_at) / Fold change (Aza/veh), FGFR1OP (ProbeSet 11751329_s_at) / Fold change (ACY-1035/veh), FGFR1OP (ProbeSet 11751329_s_at) / Fold change (Aza/veh), VPS36 (ProbeSet 11739960_a_at) / Fold change (ACY-1035/veh), VPS36 (ProbeSet 11739960_a_at) / RFU SYPL1 (11715823_x_at) / Fold change /veh SYPL1 (11715823_x_at) / RFU IGFBP7 (11715501_s_at) / Fold change /veh IGFBP7 (11715501_s_at) / RFU REEP3 (11722064_at) / Fold change /veh REEP3 (11722064_at) / RFU IGLL1 (11728026_x_at) / Fold change /veh IGLL1 (11728026_x_at): dose or concentration left out as unconfirmed
Conditions: ProbeSet 11724526_at; LIST B

For `Nc1ncn([C@@H]2O[C@H](CO)[C@@H](O)[C@H]2O)c(=O)n1` [azacitidine], the “Fold change vs veh, FAHD1” value was 0.84.
